Target: T1, human PTH1 receptor (Homo sapiens, UniProt Q03431)
T1 sequence (Q03431 27-593): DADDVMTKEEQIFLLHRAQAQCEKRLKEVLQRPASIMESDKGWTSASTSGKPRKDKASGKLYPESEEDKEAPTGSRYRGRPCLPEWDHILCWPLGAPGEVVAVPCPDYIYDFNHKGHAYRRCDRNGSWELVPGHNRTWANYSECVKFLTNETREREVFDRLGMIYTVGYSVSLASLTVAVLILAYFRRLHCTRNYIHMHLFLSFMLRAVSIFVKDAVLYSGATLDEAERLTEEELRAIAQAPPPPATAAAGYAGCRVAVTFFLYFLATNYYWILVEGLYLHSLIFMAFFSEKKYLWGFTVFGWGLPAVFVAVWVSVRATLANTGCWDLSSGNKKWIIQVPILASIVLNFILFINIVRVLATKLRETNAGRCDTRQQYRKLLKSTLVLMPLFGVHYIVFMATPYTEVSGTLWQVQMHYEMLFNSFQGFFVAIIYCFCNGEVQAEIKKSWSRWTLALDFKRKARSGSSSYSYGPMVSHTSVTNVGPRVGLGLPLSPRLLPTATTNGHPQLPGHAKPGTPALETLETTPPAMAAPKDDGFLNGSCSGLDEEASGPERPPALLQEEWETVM
Experiment: In vitro cAMP signal activity in HKRK-B7 cells (LLC-PK1 cells overexpressing the human PTH1 receptor)
Assay type: cell-based
Details: HKRK-B7 cells; compound at 1×10^−3 M; cAMP produced as percentage of that produced by hPTH(1-34) at 100 nM

Compound	cAMP production activity (%)
O=C1NC(C2(c3ccccc3)CCCCC2)=NC12CCN(S(=O)(=O)c1cccc(Cl)c1)CC2 [Compound 33, 8-(3-chloro-benzenesulfonyl)-2-(1-phenyl-cyclohexyl)-1,3,8-triaza-spiro[4.5]dec-1-en-4-one]	4.4%
O=C1NC(CCc2cccc3ccccc23)=NC12CCN(S(=O)(=O)c1cccc(Cl)c1)CC2 [Compound 34, 8-(3-chloro-benzenesulfonyl)-2-(2-naphthalen-1-yl-ethyl)-1,3,8-triaza-spiro[4.5]dec-1-en-4-one]	16%
O=C1NC(c2cccc(C(F)(F)F)c2)=NC12CCN(S(=O)(=O)CCc1cccc3ccccc13)CC2 [Compound 35, 8-(2-Naphthalen-1-yl-ethanesulfonyl)-2-(3-trifluoromethyl-phenyl)-1,3,8-triaza-spiro[4.5]dec-1-en-4-one]	56%
CC(C)(C)C1=NC2(CCN(S(=O)(=O)CCc3cccc4ccccc34)CC2)C(=O)N1 [Compound 36, 2-tert-butyl-8-(2-naphthalen-1-yl-ethanesulfonyl)-1,3,8-triaza-spiro[4.5]dec-1-en-4-one]	3.5%
O=C1NC(C2CCC(C(F)(F)F)CC2)=NC12CCN(S(=O)(=O)CCc1cccc3ccccc13)CC2 (stereo not shown) [Compound 37, 8-(2-naphthalen-1-yl-ethanesulfonyl)-2-(4-trifluoromethyl-cyclohexyl)-1,3,8-triaza-spiro[4.5]dec-1-en-4-one]	54%
CC(C)(C)OC(=O)N1CCCC(C2=NC3(CCN(S(=O)(=O)CCc4cccc5ccccc45)CC3)C(=O)N2)C1 (stereo not shown) [Compound 38, 3-[8-(2-Naphthalen-1-yl-ethanesulfonyl)-4-oxo-1,3,8-triaza-spiro[4.5]dec-1-en-2-yl]-piperidine-1-carboxylic acid tert-butyl ester]	52%
O=C1NC(C2CCCN(S(=O)(=O)CCc3cccc4ccccc34)C2)=NC12CCN(S(=O)(=O)CCc1cccc3ccccc13)CC2 (stereo not shown) [Compound 39, 8-(2-Naphthalen-1-yl-ethanesulfonyl)-2-[1-(2-naphthalen-1-yl-ethanesulfonyl)-piperidin-3-yl]-1,3,8-triaza-spiro[4.5]dec-1-en-4-one]	25%
CCCS(=O)(=O)N1CCCC(C2=NC3(CCN(S(=O)(=O)c4cccc(Cl)c4)CC3)C(=O)N2)C1 (stereo not shown) [Compound 40, 8-(3-chloro-benzenesulfonyl)-2-[1-(propane-1-sulfonyl)-piperidin-3-yl]-1,3,8-triaza-spiro[4.5]dec-1-en-4-one]	19%
O=C1NC(C2CCCN(S(=O)(=O)Cc3ccccc3)C2)=NC12CCN(S(=O)(=O)c1cccc(Cl)c1)CC2 (stereo not shown) [Compound 42, 8-(3-chloro-benzenesulfonyl)-2-(1-phenylmethanesulfonyl-piperidin-3-yl)-1,3,8-triaza-spiro[4.5]dec-1-en-4-one]	27%
O=C1NC(C2CCCN(S(=O)(=O)Cc3ccccc3)C2)=NC12CCN(S(=O)(=O)CCc1cccc3ccccc13)CC2 (stereo not shown) [Compound 43, 8-(2-naphthalen-1-yl-ethanesulfonyl)-2-(1-phenylmethanesulfonyl-piperidin-3-yl)-1,3,8-triaza-spiro[4.5]dec-1-en-4-one]	39%
O=C1NC(c2ccc(Cl)cc2Cl)=NC12CCN(S(=O)(=O)c1ccc(Cl)cc1)CC2 [Compound 44, 8-(4-Chloro-benzenesulfonyl)-2-(2,4-dichloro-phenyl)-1,3,8-triaza-spiro[4.5]dec-1-en-4-one]	25%
O=C1NC(c2ccc(Cl)cc2Cl)=NC12CCN(S(=O)(=O)c1ccccc1C(F)(F)F)CC2 [Compound 45, 2-(2,4-dichloro-phenyl)-8-(2-trifluoromethyl-benzenesulfonyl)-1,3,8-triaza-spiro[4.5]dec-1-en-4-one]	22%
CCCCS(=O)(=O)N1CCC2(CC1)N=C(c1ccc(Cl)cc1Cl)NC2=O [Compound 46, 8-(butane-1-sulfonyl)-2-(2,4-dichloro-phenyl)-1,3,8-triaza-spiro[4.5]dec-1-en-4-one]	17%
O=C1NC(c2ccc(Cl)cc2Cl)=NC12CCN(S(=O)(=O)CCc1cccc3ccccc13)CC2 [Compound 47, 2-(2,4-dichloro-phenyl)-8-(2-naphthalen-1-yl-ethanesulfonyl)-1,3,8-triaza-spiro[4.5]dec-1-en-4-one]	45%
O=C1NC(c2ccc(Cl)cc2Cl)=NC12CCN(S(=O)(=O)c1cccc3cccnc13)CC2 [Compound 48, 2-(2,4-Dichloro-phenyl)-8-(quinoline-8-sulfonyl)-1,3,8-triaza-spiro[4.5]dec-1-en-4-one]	25%
O=C1NC(c2ccc(Cl)cc2Cl)=NC12CCN(S(=O)(=O)c1ccc(F)c(Cl)c1)CC2 [Compound 49, 8-(3-chloro-4-fluoro-benzenesulfonyl)-2-(2,4-dichloro-phenyl)-1,3,8-triaza-spiro[4.5]dec-1-en-4-one]	29%
O=C1NC(c2ccc(Cl)cc2Cl)=NC12CCN(S(=O)(=O)c1cccc(Cl)c1)CC2 [Compound 50, 8-(3-chloro-benzenesulfonyl)-2-(2,4-dichloro-phenyl)-1,3,8-triaza-spiro[4.5]dec-1-en-4-one]	26%

Now from value to molecule:

cAMP production activity (%)	Compound
21%	O=C1NC(C2CCCN(S(=O)(=O)c3ccccc3)C2)=NC12CCN(S(=O)(=O)c1cccc(Cl)c1)CC2 (stereo not shown) [Compound 41, 2-(1-benzenesulfonyl-piperidin-3-yl)-8-(3-chloro-benzenesulfonyl)-1,3,8-triaza-spiro[4.5]dec-1-en-4-one]
38%	COC(=O)c1ccccc1S(=O)(=O)N1CCC2(CC1)N=C(C1CCCCC1)NC2=O [Compound 51, 2-(2-Cyclohexyl-4-oxo-1,3,8-triaza-spiro[4.5]dec-1-ene-8-sulfonyl)-benzoic acid methyl ester]
23%	Cc1onc(-c2ccccc2)c1S(=O)(=O)N1CCC2(CC1)N=C(C1CCCCC1)NC2=O [Compound 52, 2-cyclohexyl-8-(5-methyl-3-phenyl-isoxazole-4-sulfonyl)-1,3,8-triaza-spiro[4.5]dec-1-en-4-one]
33%	O=C1NC(C2CCCCC2)=NC12CCN(S(=O)(=O)c1csc3ccccc13)CC2 [Compound 53, 8-(benzo[b]thiophene-3-sulfonyl)-2-cyclohexyl-1,3,8-triaza-spiro[4.5]dec-1-en-4-one]
35%	O=C1NC(C2CCCCC2)=NC12CCN(S(=O)(=O)c1cc3ccccc3s1)CC2 [Compound 54, 8-(benzo[b]thiophene-2-sulfonyl)-2-cyclohexyl-1,3,8-triaza-spiro[4.5]dec-1-en-4-one]
55%	O=C1NC(C2CCCCC2)=NC12CCN(S(=O)(=O)c1ccc(Cl)s1)CC2 [Compound 55, 8-(5-chloro-thiophene-2-sulfonyl)-2-cyclohexyl-1,3,8-triaza-spiro[4.5]dec-1-en-4-one]
55%	O=C1NC(C2CCCCC2)=NC12CCN(S(=O)(=O)c1cccs1)CC2 [Compound 56, 2-cyclohexyl-8-(thiophene-2-sulfonyl)-1,3,8-triaza-spiro[4.5]dec-1-en-4-one]
35%	O=C1NC(C2CCCCC2)=NC12CCN(S(=O)(=O)c1cccc3ccccc13)CC2 [Compound 57, 2-cyclohexyl-8-(naphthalene-1-sulfonyl)-1,3,8-triaza-spiro[4.5]dec-1-en-4-one]
